System: Cell Line 2 (CHO) expressing Antibody 2
Assay: Acidic species variants (WCX-10) of Antibody 2, Cell Line 2 lab-scale bioreactor culture
Assay type: cell-based, Chinese Hamster
Conditions: 0.1 g/L
Procedure: Four different recombinant Chinese Hamster Ovary (CHO) cell lines expressing four different recombinant glycoproteins were evaluated in either shaker flask culture, or 3 L laboratory scale bioreactors. Cell Line 1 was genetically engineered to express Antibody 1, Cell Line 2 was genetically engineered to express Antibody 2, Cell Line 3 was genetically engineered to express dual variable domain immunoglobulin 1 (DVD1) and Cell Line 4 was genetically engineered to express dual variable domain immunoglobulin 2 (DVD2).
Charge Heterogeneity via Weak Cation Exchange Chromatography-Samples were analyzed using an HPLC system equipped with a ProPac WCX-10 analytical column (Thermo Scientific, Sunnyvale, Calif.). Approximately 100 μg of sample was loaded in 6% Buffer B (10 mM sodium phosphate, 500 mM NaCl, pH 5.5) and 94% Buffer A (10 mM sodium phosphate, pH 7.5). The column was run at a flow rate of 1.0 mL/min. The protein was eluted from the column by increasing the buffer B composition from 6% to 16% over 20 minutes. The protein peaks were measured using UV absorbance at 280 nm as the peaks eluted from the column. The column was regenerated using 100% buffer B followed be a re-equilibration period using initial condition before the injection of the next sample. […]

For `O=C(O[C@@H]1Cc2c(O)cc(O)cc2O[C@@H]1c1cc(O)c(O)c(O)c1)c1cc(O)c(O)c(O)c1` [EGCG, epigallocatechin gallate], which “relative reduction of total acidic variants content vs unsupplemented control” value is on record?
Its value is 29%-36%.

Source: patent US9416181B2, “Compositions for cell culture and methods of using the same” (AbbVie Inc., priority 2013, dated 2016)
